# Reference: US20040077624A1, “Novel combination” (Pfizer Inc., priority 2002, published 2004)
# Test system: spontaneously hypertensive rat (SHR)
# Experiment: Animal study: haemodynamic parameters in spontaneously hypertensive rats under continuous infusion
# Assay type: in vivo
# Settings: male SHR; continuous infusion 0.4 mL/h over 4 days; enalapril 7.5 μg/mL, PDE5 inhibitor 200 μg/mL; difference from the vehicle response
# Description: The spontaneously hypertensive rat (SHR) is a widely used model of human hypertension. Male SHRs (20-22 weeks old) were instrumented with Doppler flow probes for the measurement of mesenteric, hindquarters and renal blood flow, aortic blood pressure and heart rate according to published methods (Gardiner, S M et al.; Br. J. Pharmacol. 132(8), 1625-1629, 2001).
# Solutions of enalapril (7.5 μg/mL), PDE5 inhibitor (200μg/mL) and a combination of enalapril and PDE5 inhibitor (7.5μg/mL+200 μg/mL) were infused at a rate of 0.4 mL/h throughout the experimental period. Control animals received compound vehicle; isotonic saline adjusted to pH 4 with hydrochloric acid.
# Baseline haemodynamic parameters were recorded. Animals (n=7 or 8/group) were randomised then treated with the drug solution by continuous infusion over 4 days. Changes in haemodynamic parameters were monitored during the study period for 7h on each day.
SMILES,Change in aortic conductance,Change in mesenteric conductance,Change in renal conductance,Overall change in mean BP [mmHg]
"CCOC(=O)[C@H](CCc1ccccc1)N[C@@H](C)C(=O)N1CCC[C@H]1C(=O)O [Enalapril, enalapril]",+3.7%,+22.4%,+14.2%,−2.4
"CCc1c2nc(-c3cc(S(=O)(=O)N4CCN(CC)CC4)cnc3OCCOC)[nH]c(=O)c2nn1Cc1ccccn1 [PDE5 inhibitor, 3-ethyl-5-[5-(4-ethylpiperazin-1-ylsulphonyl)-2-(2-methoxyethoxy)pyridin-3-yl]-2-(pyridin-2-yl)methyl-2,6-dihydro-7H-pyrazolo[4,3-d]pyrimidin-7-one]",+19.8%,+22.1%,−0.8%,−12.1
